Measured values: patent US20230416238A1, “N-[(1,3-BENZOXAZOL-2-YL)-HETEROCYCLE]AMIDE DERIVATIVES FOR THE TREATMENT AND PROPHYLAXIS OF HEPATITIS B VIRUS INFECTION” (Hoffmann-La Roche Inc., priority 2020, published 2023)

Experiments:
Format in all cases: cell-based
HBsAg = assay: PHH HBV natural infection assay, HBsAg (alphalisa); conditions: Hepatitis B virus, Hepatocyte, read-out: HBsAg IC50
Method: (§1) Detailed procedures regarding primary human hepatocyte (PHH) HBV natural infection assay are described as below. One tube of frozen PHH (10 million cells) is thawed in 37° C. water bath and then transferred to 20 mL of PHH thawing medium (Sigma, InVitroGRO HT Medium, Cat. S03319) with gently mixing. The cells were then centrifuged at […] for 5 min, the supernatant was discarded and the tube was refilled with 25 mL of PHH plating medium (Sigma, InVitroGRO CP Medium, Cat. S03317). The tube was shaken very gently to re-suspend all cells, and then 50 μL of cells were transferred to each well 384-well collagen I coated plate with appropriate liquid handling equipment, e.g. Integra VIAFLO384 or Agilent Bravo. The cells were then cultured for 24 hours in a cell incubator. For HBV infection, after PHH attachment on the culture plate, the plating medium was removed and replenished with PHH culture medium containing HBV virus. The PHH culture medium was prepared with Dulbecco's Modified Eagle Medium (DMEM)/F12 (1:1 in volume ratio) containing 10% fetal bovine serum (Gibco, Cat. 10099141), 5 ng/mL human epidermal growth factor (Gibco, Cat. PHG0311L), 20 ng/mL dexamethasone (Sigma, Cat. D4902-100 mg), 250 ng/mL human recombinant insulin (Gibco, Cat. 41400045) and 100 U/mL penicillin. HBV virus at 200 genome equivalent (GE) per cell with 4% PEG8000 (Sigma, Cat. P1458) containing culture medium were added to the PHH culture medium for infection. The cells were then cultured for 24 hours in cell incubator. Then the cell culture supernatant was removed. The HBV-infected PHH were cultured with sandwich culture method with MEI culture medium containing 1% DMSO and 0.25 mg/mL matrix gel for 72 hours. The supernatant was then refreshed with PHH culture medium containing different concentrations of testing compounds for two times with 72-hour interval. At the end of treatment, the supernatant was collected for viral markers measurements, including HBsAg, HBeAg, HBV DNA and cytotoxicity. HBsAg and HBeAg were detected using alphalisa method using their specific antibodies. For HBV DNA detection, HBV DNA Quantitative Fluorescence Diagnostic Kit (Sansure Biotech Inc.) was used following the manufacture's protocol. Cytotoxicity was determined using Cell Counting Kit-8 (CCK8, Dojindo Molecular Technologies, Inc.).
(§2) The compounds of the present invention were tested for their capacity to inhibit HBsAg and HBeAg as described herein.

HBeAg = assay: PHH HBV natural infection assay, HBeAg (alphalisa); conditions: Hepatitis B virus, Hepatocyte, read-out: HBeAg IC50
Method: as §1, §2

[1] = Cytotoxicity in PHH natural infection assay (Cell Counting Kit-8); conditions: HBV-infected primary human hepatocytes, CCK8
Method: as §1

Row | SMILES | IC50 (HBsAg) | IC50 (HBeAg) | CC50 at 144 h [1]
1 | CS(=O)(=O)N1CCC(C(=O)NCC2CCN(c3nc4cc(Cl)ccc4o3)CC2)C1 (stereo not drawn) [Example 13, N-[[1-(5-chloro-1,3-benzoxazol-2-yl)-4-piperidyl]methyl]-1-methylsulfonyl-pyrrolidine-3-carboxamide] | 9.37 µM | 8.5 µM | > 10 µM
2 | CCNC(=O)NC1CC2(C1)CN(c1nc3cc(Cl)ccc3o1)C2 [Example 24, 1-[2-(5-Chloro-1,3-benzoxazol-2-yl)-2-azaspiro[3.3]heptan-6-yl]-3-ethyl-urea] | 7.29 µM | 8.31 µM | > 100 µM
3 | O=C(NC1CC2(C1)CN(c1nc3cc(Cl)ccc3o1)C2)c1ccc([S+]([O-])CC2CC2)o1 (stereo not drawn) [Example 61, N-[2-(5-chloro-1,3-benzoxazol-2-yl)-2-azaspiro[3.3]heptan-6-yl]-5-(cyclopropylmethylsulfinyl)furan-2-carboxamide] | 0.189 µM | 0.402 µM | 96 µM
4 | COCCOc1cc(C(=O)NC2CC3(C2)CN(c2nc4cc(Cl)ccc4o2)C3)ccn1 [Example 39, N-[2-(5-chloro-1,3-benzoxazol-2-yl)-2-azaspiro[3.3]heptan-6-yl]-2-(2-methoxyethoxy)pyridine-4-carboxamide] | 6.47 µM | 4.37 µM | > 100 µM
5 | O=C(NC1CC2(C1)CN(c1nc3cc(Cl)ccc3o1)C2)c1ccnc(C(F)(F)F)c1 [Example 55, N-[2-(5-chloro-1,3-benzoxazol-2-yl)-2-azaspiro[3.3]heptan-6-yl]-2-(trifluoromethyl)pyridine-4-carboxamide] | 1.23 µM | 0.966 µM | 71.1 µM
6 | CC(C)CS(=N)(=O)c1ccc(C(=O)NC2CC3(C2)CN(c2nc4cc(Cl)ccc4o2)C3)o1 (stereo not drawn) [Example 50, N-[2-(5-chloro-1,3-benzoxazol-2-yl)-2-azaspiro[3.3]heptan-6-yl]-5-(isobutylsulfonimidoyl)furan-2-carboxamide] | 1.66 µM | 1.49 µM | 95.4 µM
7 | CS(=O)(=O)N1CC(CC(=O)NCC2CCN(c3nc4cc(Cl)ccc4o3)CC2)C1 [Example 17, N-[[1-(5-chloro-1,3-benzoxazol-2-yl)-4-piperidyl]methyl]-2-(1-methylsulfonylazetidin-3-yl)acetamide] | 8.23 µM | > 10 µM | > 10 µM
8 | CS(=O)(=O)N1CCC(CC(=O)NCC2CCN(c3nc4cc(Cl)ccc4o3)CC2)CC1 [Example 19, N-[[1-(5-chloro-1,3-benzoxazol-2-yl)-4-piperidyl]methyl]-2-(1-methylsulfonyl-4-piperidyl)acetamide] | 7.74 µM | 3.75 µM | > 10 µM
9 | O=C(NC1CC2(C1)CN(c1nc3cc(Cl)ccc3o1)C2)C1CC1(F)F (stereo not drawn) [Example 30, N-[2-(5-chloro-1,3-benzoxazol-2-yl)-2-azaspiro[3.3]heptan-6-yl]-2,2-difluoro-cyclopropanecarboxamide] | 3.5 µM | 2.7 µM | > 100 µM
10 | O=C(NC1CCC2(CCN(c3nc4cc(Cl)ccc4o3)C2)C1)c1ccc(C(F)(F)F)o1 (stereo not drawn) [Example 75, N-[2-(5-chloro-1,3-benzoxazol-2-yl)-2-azaspiro[4.4]nonan-8-yl]-5-(trifluoromethyl)furan-2-carboxamide] | 8.28 µM | 7.81 µM | 91.2 µM
11 | O=C(NC1CC2(C1)CN(c1nc3ccc(Cl)cc3o1)C2)c1ccnc(S(=O)(=O)C2CC2)c1 [Example 37, N-[2-(6-chloro-1,3-benzoxazol-2-yl)-2-azaspiro[3.3]heptan-6-yl]-2-cyclopropylsulfonyl-pyridine-4-carboxamide] | 7.75 µM | 6.26 µM | > 10 µM
12 | CS(=O)(=O)Cc1ccc(C(=O)NC2CCC3(CC2)CCN(c2nc4cc(Cl)ccc4o2)CC3)o1 [Example 112, N-[3-(5-chloro-1,3-benzoxazol-2-yl)-3-azaspiro[5.5]undecan-9-yl]-5-(methylsulfonylmethyl)furan-2-carboxamide] | 3.68 µM | 4.24 µM | > 10 µM
13 | O=C(NC1CC2CN(c3nc4cc(Cl)ccc4o3)CC2C1)c1ccc(C(F)(F)F)o1 (stereo not drawn) [Example 123, N-[2-(5-chloro-1,3-benzoxazol-2-yl)-3,3a,4,5,6,6a-hexahydro-1H-cyclopenta[c]pyrrol-5-yl]-5-(trifluoromethyl)furan-2-carboxamide] | 4.81 µM | 5.47 µM | > 100 µM
14 | CC(C)CS(=O)(=O)c1ccc(C(=O)NC2CC3(C2)CN(c2nc4cc(Cl)ccc4o2)C3)o1 [Example 54, N-[2-(5-chloro-1,3-benzoxazol-2-yl)-2-azaspiro[3.3]heptan-6-yl]-5-isobutylsulfonyl-furan-2-carboxamide] | 1.27 µM | 0.828 µM | 84.5 µM
15 | O=C(NC1CC2(C1)CN(c1nc3cc(Cl)ccc3o1)C2)C1CCC(F)(F)C1 (stereo not drawn) [Example 32, N-[2-(5-chloro-1,3-benzoxazol-2-yl)-2-azaspiro[3.3]heptan-6-yl]-3,3-difluoro-cyclopentanecarboxamide] | 4.25 µM | 10.3 µM | > 100 µM
16 | Cc1ccc(S(=O)(=O)N2CCC(C(=O)NCC3CCN(c4nc5cc(Cl)ccc5o4)CC3)C2)cc1 (stereo not drawn) [Example 14, N-[[1-(5-chloro-1,3-benzoxazol-2-yl)-4-piperidyl]methyl]-1-(p-tolylsulfonyl)pyrrolidine-3-carboxamide] | 3.82 µM | 4.16 µM | > 10 µM
17 | O=C(NC1CC2CN(c3nc4cc(Cl)ccc4o3)CC2C1)C1CCS(=O)(=O)C1 (stereo not drawn) [Example 124, N-[2-(5-chloro-1,3-benzoxazol-2-yl)-3,3a,4,5,6,6a-hexahydro-1H-cyclopenta[c]pyrrol-5-yl]-1,1-dioxo-thiolane-3-carboxamide] | 6.59 µM | 13 µM | > 100 µM
18 | CS(=O)(=O)c1ccc(C(=O)NC2CCC3(CC2)CCN(c2nc4cc(Cl)ccc4o2)CC3)o1 [Example 113, N-[3-(5-chloro-1,3-benzoxazol-2-yl)-3-azaspiro[5.5]undecan-9-yl]-5-methylsulfonyl-furan-2-carboxamide] | 3.59 µM | 3.27 µM | > 100 µM
19 | O=C(NC1CCC2(C1)CN(c1nc3cc(Cl)ccc3o1)C2)c1ccc(C(F)(F)F)o1 (stereo not drawn) [Example 69, N-[2-(5-chloro-1,3-benzoxazol-2-yl)-2-azaspiro[3.4]octan-6-yl]-5-(trifluoromethyl)furan-2-carboxamide] | 4.41 µM | 4.01 µM | 83.2 µM
20 | NC(=O)c1cc(C(=O)NCC2CCN(c3nc4cc(Cl)ccc4o3)CC2)ccn1 [Example 6, N4-[[1-(5-chloro-1,3-benzoxazol-2-yl)-4-piperidyl]methyl]pyridine-2,4-dicarboxamide] | 4.36 µM | 4.43 µM | > 10 µM
21 | NS(=O)(=O)c1ccc(C(=O)NCC2CCN(c3nc4cc(Cl)ccc4o3)CC2)o1 [Example 8, N-[[1-(5-chloro-1,3-benzoxazol-2-yl)-4-piperidyl]methyl]-5-sulfamoyl-furan-2-carboxamide] | 3.14 µM | 2.85 µM | > 10 µM
22 | O=C(NC1CCC2(CC1)CCN(c1nc3cc(Cl)ccc3o1)CC2)[C@@H]1CCS(=O)(=O)C1 [Example 91, (3S)—N-[3-(5-chloro-1,3-benzoxazol-2-yl)-3-azaspiro[5.5]undecan-9-yl]-1,1-dioxo-thiolane-3-carboxamide] | 1.12 µM | 0.676 µM | 89.2 µM
23 | CCS(=N)(=O)c1ccc(C(=O)NC2CCC3(CC2)CCN(c2nc4cc(Cl)ccc4o2)CC3)o1 (stereo not drawn) [Example 114, N-[3-(5-chloro-1,3-benzoxazol-2-yl)-3-azaspiro[5.5]undecan-9-yl]-5-(ethylsulfonimidoyl)furan-2-carboxamide] | 3.54 µM | 3.1 µM | 93.3 µM
24 | CC1(C(=O)NC2CCC3(CC2)CCN(c2nc4cc(Cl)ccc4o2)CC3)CCS(=O)(=O)C1 (stereo not drawn) [Example 93, N-[3-(5-chloro-1,3-benzoxazol-2-yl)-3-azaspiro[5.5]undecan-9-yl]-3-methyl-1,1-dioxo-thiolane-3-carboxamide] | 1.82 µM | 1.19 µM | > 100 µM
